In ChEMBL document CHEMBL1128078, “Evaluation of substituted benzamides as P2 ligands for symmetry-based inhibitors of HIV protease” (Bioorg Med Chem Lett, 1995) one finds EC50, CCIC50 and IC50 data, which are given here for 30 compounds.

Molecules are shown by their SMILES.

Assay [1] concerns Human immunodeficiency virus 1. The assay is described as follows: Anti-HIV activity against MT-4 cells using a cytopathicity assay. Type of assay: functional, organism-based. The conditions noted are these: Human immunodeficiency virus 1, MT4. (In general: Damage to the host cells serves as the signal in cytopathic effect assays.)
In assay [2] the test system is MT4. Kind of assay: Cytotoxicity against MT-4 cells using a cytopathicity assay. Type of assay: functional, Homo sapiens.
In assay [3] the target is Human immunodeficiency virus type 1 protease (Human immunodeficiency virus 1, UniProt Q72874). The assay is described as follows: Inhibitory activity against purified HIV protease.
In assay [4] the test system is MT4. The assay is described as follows: Anti-HIV activity was determined against MT-4 cells using a cytopathicity assay; NE means no effect. The format is functional, cell-based, Homo sapiens.

By EC50 is commonly meant the concentration that produces a half-maximal response. A higher EC50 goes with lower potency in that assay. A word on the IC50: it is the concentration that inhibits the measured activity by half. The low end stands for higher potency, the high end for lower potency. Compound `COc1cc(C(=O)N[C@@H](Cc2ccccc2)C[C@H](O)[C@H](Cc2ccccc2)NC(=O)OCc2ccccc2)ccc1N` registered an EC50 in assay [1] of more than 8000 nM. This compound returned a CCIC50 in assay [2] of 18 µM. Further, the IC50 in assay [3] stood at 10.5 nM.
For `CC(C)(C)OC(=O)N[C@@H](Cc1ccccc1)C[C@H](O)[C@H](Cc1ccccc1)NC(=O)c1cccc(O)c1` the same measures were 1600 nM, 45 µM and 3.4 nM.
Compound `O=C(N[C@@H](Cc1ccccc1)C[C@H](O)[C@H](Cc1ccccc1)NC(=O)OCc1ccccc1)OCc1ccccc1` had an EC50 in assay [1] of more than 30000 nM. This compound had a CCIC50 in assay [2] of more than 100 µM. For the same compound, the half-maximal inhibitory concentration (IC50) in assay [3] came out at 5.6 nM.
In the case of `COc1cc(C(=O)N[C@@H](Cc2ccccc2)[C@@H](O)C[C@H](Cc2ccccc2)NC(=O)OC(C)(C)C)ccc1O`, the EC50 in assay [1] amounted to 2800 nM. In assay [2], this compound yielded a CCIC50 of 43 µM. The IC50 in assay [3] was found to be 3.3 nM.
The compound `CC(C)(C)OC(=O)N[C@@H](Cc1ccccc1)C[C@H](O)[C@H](Cc1ccccc1)NC(=O)c1ccc(O)c(O)c1` gave a concentration for a half-maximal effect (EC50) in assay [1] of 2900 nM. Besides, in assay [2], the CCIC50 is 21 µM. For the same compound, in assay [3], it took 4.1 nM to reach half-maximal inhibition (IC50).
The corresponding values for `COc1cc(C(=O)N[C@@H](Cc2ccccc2)[C@@H](O)C[C@H](Cc2ccccc2)NC(=O)OC(C)(C)C)ccc1N` are 3200 nM, 38 µM and 7.5 nM.
For the compound `COc1cccc(C(=O)N[C@@H](Cc2ccccc2)[C@@H](O)C[C@H](Cc2ccccc2)NC(=O)OC(C)(C)C)c1`, in assay [1], the EC50 is more than 10000 nM. Further, in assay [2], the CCIC50 was determined as 19 µM. The compound also had a 50% inhibitory concentration (IC50) in assay [3] of 23 nM.
In turn, `Cc1c(N)cccc1C(=O)N[C@@H](Cc1ccccc1)[C@@H](O)C[C@H](Cc1ccccc1)NC(=O)OC(C)(C)C` showed an EC50 in assay [1] of 1400 nM. Also, the CCIC50 in assay [2] is 56 µM. This compound came in with a 50% inhibitory concentration (IC50) in assay [3] of 2.6 nM.
As for `CC(C)(C)OC(=O)N[C@@H](Cc1ccccc1)C[C@H](O)[C@H](Cc1ccccc1)NC(=O)c1ccc(O)c(N)c1`, the EC50 in assay [1] was 5000 nM. The CCIC50 in assay [2] stood at 57 µM. Moreover, the IC50 in assay [3] amounted to 7.6 nM.
The corresponding values for `Nc1ccc(C(=O)N[C@@H](Cc2ccccc2)C[C@H](O)[C@H](Cc2ccccc2)NC(=O)OCc2ccccc2)cc1O` are more than 10000 nM, 18 µM and 22 nM.
Take `CC(C)(C)OC(=O)N[C@@H](Cc1ccccc1)C[C@H](O)[C@H](Cc1ccccc1)NC(=O)c1ccc(N)c(N)c1`: the 50% effective concentration (EC50) in assay [1] turned out to be 7600 nM. This compound yielded a CCIC50 in assay [2] of 81 µM. The IC50 in assay [3] worked out at 9.6 nM.
The corresponding values for `O=C(N[C@@H](Cc1ccccc1)[C@@H](O)C[C@H](Cc1ccccc1)NC(=O)c1ccc(O)cc1Cl)OCc1ccccc1` are 2200 nM, 18 µM and 1.3 nM.
On to `CC(C)(C)OC(=O)N[C@@H](Cc1ccccc1)C[C@H](O)[C@H](Cc1ccccc1)NC(=O)c1cc(O)cc(O)c1`, for which, in assay [1], the EC50 was found to be 11000 nM. The same compound came in with a CCIC50 in assay [2] of 53 µM. In assay [3], this compound registered an IC50 of 51 nM.
`O=C(N[C@@H](Cc1ccccc1)[C@@H](O)C[C@H](Cc1ccccc1)NC(=O)c1ccccc1)OCc1ccccc1`: in assay [1], the EC50 is more than 10000 nM. Further, the CCIC50 in assay [2] was more than 100 µM. In assay [3], inhibition was half-maximal at 31 nM (IC50).
As to `CC(C)(C)OC(=O)N[C@@H](Cc1ccccc1)C[C@H](O)[C@H](Cc1ccccc1)NC(=O)c1ccc(N)c(O)c1`, the EC50 entry in assay [4] is listed as “Not Active”. Further, the CCIC50 in assay [2] is 11 µM. This compound came in with a half-inhibitory concentration (IC50) in assay [3] of 11 nM.
Turning to `CC(C)(C)OC(=O)N[C@@H](Cc1ccccc1)C[C@H](O)[C@H](Cc1ccccc1)NC(=O)c1ccccc1O`, the EC50 in assay [1] was more than 75000 nM. In assay [2], this compound registered a CCIC50 of more than 100 µM. The same compound gave a 50% inhibitory concentration (IC50) in assay [3] of 145 nM.
Turning to `CC(C)(C)OC(=O)N[C@@H](Cc1ccccc1)C[C@H](O)[C@H](Cc1ccccc1)NC(=O)c1ccccc1`, in assay [1], the EC50 was 4300 nM. The same compound gave a CCIC50 in assay [2] of 16 µM. The compound also came in with an IC50 in assay [3] of 4.5 nM.
For the compound `CC(C)(C)OC(=O)N[C@@H](Cc1ccccc1)C[C@H](O)[C@H](Cc1ccccc1)NC(=O)c1cc(O)ccc1Cl`, a half-maximal effect in assay [1] (EC50) was put at 3700 nM. Besides, the CCIC50 in assay [2] was 19 µM. In addition, in assay [3], the IC50 amounted to 12 nM.
Compound `Nc1ccc(C(=O)N[C@@H](Cc2ccccc2)C[C@H](O)[C@H](Cc2ccccc2)NC(=O)OCc2ccccc2)c(Cl)c1` registered an EC50 in assay [1] of more than 10000 nM. The compound further came in with a CCIC50 in assay [2] of 15 µM. For the same compound, the IC50 in assay [3] was determined as 6.1 nM.
`CC(C)(C)OC(=O)N[C@@H](Cc1ccccc1)C[C@H](O)[C@H](Cc1ccccc1)NC(=O)c1c(Cl)cccc1Cl`: in assay [1], the EC50 was more than 10000 nM. In assay [2], the CCIC50 stood at 19 µM. Further, the IC50 in assay [3] is 67 nM.
In assay [3], `CC(C)(C)OC(=O)N[C@@H](Cc1ccccc1)C[C@H](O)[C@H](Cc1ccccc1)NC(=O)c1c(Cl)ccc(N)c1Cl` displayed an IC50 of 31 nM. In other words, the double-digit nanomolar range.
Compound `CC(C)(C)OC(=O)N[C@@H](Cc1ccccc1)C[C@H](O)[C@H](Cc1ccccc1)NC(=O)c1cccc(N)c1Cl` showed an EC50 in assay [1] of 3100 nM. The CCIC50 in assay [2] was 55 µM. Also, inhibition in assay [3] was half-maximal at 5.3 nM (IC50).
Consider `CC(C)(C)OC(=O)N[C@@H](Cc1ccccc1)C[C@H](O)[C@H](Cc1ccccc1)NC(=O)c1cc(N)cc(N)c1`, for which the EC50 entry in assay [4] is on record as “Not Active”. For the same compound, the CCIC50 in assay [2] was 92 µM. Further, half-maximal inhibition in assay [3] (IC50) was put at 250 nM.
Turning to `CC(C)(C)OC(=O)N[C@@H](Cc1ccccc1)C[C@H](O)[C@H](Cc1ccccc1)NC(=O)c1ccc(N)cc1Cl`, the midpoint of the response in assay [1], the EC50, lay at 2900 nM. Besides, in assay [2], the CCIC50 came to 48 µM. The same compound yielded an IC50 in assay [3] of 3.4 nM.
Regarding `CC(C)(C)OC(=O)N[C@@H](Cc1ccccc1)C[C@H](O)[C@H](Cc1ccccc1)NC(=O)c1ccc(O)cc1`, it took 4800 nM to reach a half-maximal effect in assay [1] (EC50). For the same compound, the CCIC50 in assay [2] was determined as 29 µM. The compound further gave an IC50 in assay [3] of 3.3 nM.
The corresponding values for `CC(C)(C)OC(=O)N[C@@H](Cc1ccccc1)C[C@H](O)[C@H](Cc1ccccc1)NC(=O)c1cc(N)ccc1Cl` are 1800 nM, more than 100 µM and 3.3 nM.
In the case of `CC(C)(C)OC(=O)N[C@@H](Cc1ccccc1)C[C@H](O)[C@H](Cc1ccccc1)NC(=O)c1ccc(O)cc1Cl`, a half-maximal effect in assay [1] (EC50) was put at 1800 nM. In assay [2], the CCIC50 worked out at 23 µM. Further, in assay [3], the IC50 was 1.4 nM.
For the compound `Cc1c(O)cccc1C(=O)N[C@@H](Cc1ccccc1)[C@@H](O)C[C@H](Cc1ccccc1)NC(=O)OC(C)(C)C`, the EC50 in assay [1] was determined as 1200 nM. In assay [2], this compound yielded a CCIC50 of 47 µM. In assay [3], the IC50 came out at 1.6 nM.
On to `CC(C)(C)OC(=O)N[C@@H](Cc1ccccc1)C[C@H](O)[C@H](Cc1ccccc1)NC(=O)OC(C)(C)C`, for which it took 5.3 nM to reach half-maximal inhibition in assay [3] (IC50).
In turn, `CC(C)c1nc(CN(C)C(=O)N[C@H](C(=O)N[C@@H](Cc2ccccc2)C[C@H](O)[C@H](Cc2ccccc2)NC(=O)OCc2cncs2)C(C)C)cs1` [RITONAVIR] registered a concentration for a half-maximal effect (EC50) in assay [1] of 22 nM.
